Laboratory results published in patent publication US4203253A, “Process for increasing oleoresin synthesis in pinus species” (priority 1979, dated 1980).
Read-outs that look alike come from different tables or passages of the source.

Assays:
[1] = system: slash pine (Pinus elliottii Engelm. var. elliottii); test: Percent oleoresin in slash pine 2 1/2 years after treatment (Example II, Table II); assay type: in vivo; conditions: for Percent oleoresin: dry weight of section
Protocol: Replicate 40-year-old-slash pine (Pinus elliottii Engelm. var. elliottii) were treated with 5-milliliter aliquotes of 5 percent 2-chloroethylphosphonic acid in bore holes 0.6 meter above the ground. The trees were harvested in March, 1976, 21/2 years after treatment. Analysis of total extractives was made for given portions of the bole beginning 0.5 meter below the point of treatment application (Table II).
^a Percentage based on the dry weight of that section of the tree.
^b Control trees were wounded and treated with water.

[2] = system: red pine (Pinus resinosa); test: Nonvolatile extractives and dry weight of treated red pine (Example I, Table I); assay type: in vivo; conditions: for Nonvolatile extractives, entire cross section: extracted dry weight
Text: Replicate 20-year-old plantation-grown red pine (Pinus resinosa) of a given diameter class were coned with a watertight cup. Three-hundred milliliters of 2-chloroethylphosphonic acid in various concentrations were placed in the cups, and shallow cuts one-third the circumference were made with a chisel into the xylem portion of the bole under the solution, at approximately 1.5 meters above the ground level. The treatment solution was normally adsorbed within a 24-hour period; this depended, however, on climatic conditions such as temperature and relative humidity. Trees were sacrificed 6 months after treatment and analyzed for nonvolatile extractives at given distances from the point of application, over the entire cross-section of the tree, except where noted (Table I).
^a Trees treated 5/26/76 and harvested 11/2/76. Each tree received 30
milliliters of the indicated concentration of 2chloroethylphosphonic acid
^b Distance in cm from point of treatment application.
^c Ovendry weight/fresh weight.
^d Percentage nonvolatile extractives based on the extracted dry
weight of a sample of the entire cross section.
^e Weight percentage 2chloroethylphosphonic acid in 300 milliliters o
the aqueous treatment solution.
^f Percentage nonvolatile extractives isolated from the visible
lightwood portion of each cross section based on the extracted dry weight
basis of the visible lightwood portion of each cross section.
^g Control trees were wounded and treated with water in the same
manner as the 2chloroethylphosphonic acidtreated trees.

[3] = system: slash pine (Pinus elliottii Engelm. var. elliottii); test: Average lightwood heights in slash pines (Example V, Table V); assay type: in vivo; conditions: for Average lightwood height: 0% 2-chloroethylphosphonic acid
Protocol: On October 6 and 7, 1975, a study was begun using replicate slash pine (Pinus elliottii Engelm. var. elliottii) to explore the action of 2-chloroethylphosphonic acid in combination with diquat and/or paraquat. Each tree in the study was treated three times. The first treatment was in October in 1975, the second in March of 1976, and the third in September of 1976. Each time 5 milliliters of a solution of 2-chloroethylphosphonic acid plus paraquat and/or diquat were applied to the tree in a bore hole angled to intersect approximately one-sixth of the trunk. After treatment, the bore hole was stoppered to prevent the escape of ethylene. The trees were cut during November and December of 1976.
^a Measured from point of treatment application.

[4] = system: slash pine (Pinus elliottii Engelm. var. elliottii); assay type: in vivo; conditions: for Rosin yield: 6 months, extracted dry weight
Protocol: (§1) On Sept. 14, 1973, replicate slash pine (Pinus elliottii Engelm. var. elliottii) were treated with 5 milliliters of either 1 percent (wt.) paraquat, 1 percent (wt.) diquat, 1percent (wt.) diquat plus 5 percent (wt.) 2-chloroethylphosphonic acid or 5 percent (wt.) 2-chloroethylphosphonic acid solutions placed in a bore hole. Each type of treatment was applied to 25 trees selected at random. One tree from each treatment was cut in January 1974. […] Six trees from each treatment were cut in March of 1974, approximately 6 months after treatment.

rats = conditions: cited from earlier work
[5] = cited from earlier work
[6] = system: slash pine (Pinus elliottii Engelm. var. elliottii); test: Oleoresin content and visible lightwood height in slash pines 26 months after treatment (Example IV, Table IV); assay type: in vivo; conditions: for Oleoresin content / Oleoresin content, average per unit total volume: 26 months; for Oleoresin content: extracted dry weight; for Visible lightwood height: 26 months after treatment
Protocol: as §1

[7] = system: slash pine (Pinus elliottii Engelm. var. elliottii); assay type: in vivo; conditions: 0% 2-chloroethylphosphonic acid, 1.6 years
mice = conditions: asphyxiation by exclusion of oxygen; cited from earlier work
[8] = system: endogenous ethylene production; conditions: systemically applied; cited from earlier work
[9] = 0.213 wt%, distance printed "+="
[10] = 1.064 wt%, distance "30." [sic]
[11] = distance above wound printed "0.05" m
[12] = bipyridilium 0.5% (wt) in total

## O=P(O)(O)CCCl [2-chloroethylphosphonic acid]
[1]; 5% (wt), 0-3 m from application, 2 1/2 years
  Percent oleoresin: 4.3%
[1]; 5% (wt), 3-6 m from application, 2 1/2 years
  Percent oleoresin: 3.7%
[1]; 5% (wt), above 6 m from application, 2 1/2 years
  Percent oleoresin: 3.1%
[1]; 5% (wt), average, dry weight, 2 1/2 years
  Percent oleoresin, average: 3.6%
[1]; 5 percent, 2 1/2 years after treatment
  Visible lightwood: No visible lightwood was observed
[1]; 5 percent, 5 ml in bore holes
  Distance holding most of the increase in oleoresin production: 0-3 meters
  Increase of volatile versus nonvolatile oleoresins: A greater increase in the volatile (turpentine) than in the nonvolatile (resin) oleoresins
[2]; 0.0213 wt%, +15 cm from application
  Dry weight (ovendry weight/fresh weight): 44.5 Pct
[2]; 0.0213 wt%, +15 cm
  Nonvolatile extractives, entire cross section: 3.7 Pct
[2]; 0.0213 wt%, +50 cm from application
  Dry weight (ovendry weight/fresh weight): 46.6 Pct
[2]; 0.0213 wt%, +50 cm
  Nonvolatile extractives, entire cross section: 3.4 Pct
[2]; 0.0213 wt%, -15 cm from application
  Dry weight (ovendry weight/fresh weight): 43.1 Pct
[2]; 0.0213 wt%, -15 cm
  Nonvolatile extractives, entire cross section: 3.1 Pct
[2]; 0.213 wt%, +15 cm from application
  Dry weight (ovendry weight/fresh weight): 44.8 Pct
[2]; 0.213 wt%, +15 cm
  Nonvolatile extractives, entire cross section: 3.2 Pct
[2]; 0.213 wt%, -15 cm from application
  Dry weight (ovendry weight/fresh weight): 45.5 Pct
[2]; 0.213 wt%, -15 cm
  Nonvolatile extractives, entire cross section: 3.4 Pct
[2]; [9]
  Dry weight (ovendry weight/fresh weight): 46.5 Pct
  Nonvolatile extractives, entire cross section: 3.4 Pct
[2]; 1.064 percent (wt.), red pine, 6 months
  Increase of extractive content versus water-treated controls: Doubling of the extractive content
[2]; 1.064 wt%, +50 cm from application
  Dry weight (ovendry weight/fresh weight): 56.7 Pct
[2]; 1.064 wt%, +50 cm
  Nonvolatile extractives, entire cross section: 7.2 Pct
  Nonvolatile extractives, visible lightwood portion: 18.8 Pct
[2]; 1.064 wt%, +110 cm from application
  Dry weight (ovendry weight/fresh weight): 50.3 Pct
[2]; 1.064 wt%, +110 cm
  Nonvolatile extractives, entire cross section: 3.4 Pct
[2]; 1.064 wt%, +150 cm from application
  Dry weight (ovendry weight/fresh weight): 50.1 Pct
[2]; 1.064 wt%, +150 cm
  Nonvolatile extractives, entire cross section: 3.8 Pct
[2]; 1.064 wt%, -15 cm from application
  Dry weight (ovendry weight/fresh weight): 54.1 Pct
[2]; 1.064 wt%, -15 cm
  Nonvolatile extractives, entire cross section: 4.0 Pct
[2]; [10]
  Dry weight (ovendry weight/fresh weight): 58.9 Pct
  Nonvolatile extractives, entire cross section: 6.2 Pct
  Nonvolatile extractives, visible lightwood portion: 9.3 Pct
[2]; 2.127 wt%, +15 cm from application
  Dry weight (ovendry weight/fresh weight): 67.8 Pct
[2]; 2.127 wt%, +15 cm
  Nonvolatile extractives, entire cross section: 3.1 Pct
[2]; 2.127 wt%, +50 cm from application
  Dry weight (ovendry weight/fresh weight): 69.7 Pct
[2]; 2.127 wt%, +50 cm
  Nonvolatile extractives, entire cross section: 3.1 Pct
[2]; 2.127 wt%, -15 cm from application
  Dry weight (ovendry weight/fresh weight): 66.5 Pct
[2]; 2.127 wt%, -15 cm
  Nonvolatile extractives, entire cross section: 5.4 Pct
[2]; treated trees, dehydration
  Change in dry weight percentage (oven dry weight/fresh weight): increase in dry weight percentage
[2]; visible lightering portions of cross section
  Increase in extractives in visibly lightered portions versus control trees: three to six times that of control trees
[3]; Example V combinations
  Effect on lightwood stimulation by diquat and paraquat: increases the lightwood stimulating effects of diquat and paraquat
[4]; 0 m above wound
  Rosin yield: 2.6 Pct
[4]; 5 percent (wt.) alone, approximately 6 months
  Stimulation of visible lightwood formation: did not stimulate visible lightwood formation
rats
  LD50 dosage: 4,229 mg/kg
[5]; typical aqueous solution
  pH of a typical aqueous solution: 1.0 pH
[5]; xylem transport system of the tree
  pH above which hydrolysis begins and ethylene is released: > 5 pH

## c1cc[n+]2c(c1)-c1cccc[n+]1CC2 [diquat]
[6]; 0.5-1 m above wound
  Oleoresin content: 9.6%
[6]; 1-1.5 m above wound
  Oleoresin content: 4.5%
[6]; 1.5-2.5 m above wound
  Oleoresin content: 3.5%
[6]; 2.5-4.5 m above wound
  Oleoresin content: 2.8%
[6]; 4.5-6.5 m above wound
  Oleoresin content: 1.9%
[6]
  Visible lightwood height: 2.5-3 meters
  Oleoresin content, average per unit total volume: 4.1%
[6]; [11]
  Oleoresin content: 8.9%
[7]; bipyridilium 0.5% (wt)
  Extractive content in total merchantable length: 15.2 lbs. extractives per average tree
[7]; bipyridilium 2% (wt)
  Extractive content in total merchantable length: 17.3 lbs. extractives per average tree
[3]; [12]
  Average lightwood height: 1.8 meters
[3]; bipyridilium 2% (wt) in total
  Average lightwood height: 3.1 meters
[4]; 0 m above wound
  Rosin yield: 5.5 Pct
[4]; 0.5 m above wound
  Rosin yield: 2.1 Pct
[4]; 1 m above wound
  Rosin yield: 2.3 Pct
[4]; in vivo
  Height of oleoresin soaked wood (visible lightwood): less than diquat plus 2-chloroethylphosphonic acid-treated trees
rats
  LD50 dosage: 100 mg/kg

## C=C [ethylene]
mice
  toxic concentration of gaseous ethylene: 950,000 ppm

## CCCN [n-propylamine]
rats
  LD50 dosage: 560 mg/kg

## C[n+]1ccc(-c2cc[n+](C)cc2)cc1 [paraquat]
[6]; 0.5-1 m above wound
  Oleoresin content: 12.2%
[6]; 1-1.5 m above wound
  Oleoresin content: 5.9%
[6]; 1.5-2.5 m above wound
  Oleoresin content: 3.7%
[6]; 2.5-4.5 m above wound
  Oleoresin content: 2.4%
[6]; 4.5-6.5 m above wound
  Oleoresin content: 2.0%
[6]
  Visible lightwood height: ≤ 2 meters
  Oleoresin content, average per unit total volume: 4.6%
[6]; [11]
  Oleoresin content: 10.7%
[7]; bipyridilium 0.5% (wt)
  Extractive content in total merchantable length: 14.8 lbs. extractives per average tree
[7]; bipyridilium 2% (wt)
  Extractive content in total merchantable length: 17.1 lbs. extractives per average tree
[3]; [12]
  Average lightwood height: 1.4 meters
[3]; bipyridilium 2% (wt) in total
  Average lightwood height: 2.8 meters
[4]; 0 m above wound
  Rosin yield: 8.1 Pct
[4]; 0.5 m above wound
  Rosin yield: 2.0 Pct
[4]; cut March 1974, approximately 6 months
  Height of oleoresin soaked wood (visible lightwood): less than in diquat-treated trees
[8]
  endogenous ethylene production: marked stimulation of endogenous ethylene production
  respiration rates: rapid increase in respiration rates
rats
  LD50 dosage: 100 mg/kg
